Molecular target: T1, human FPRL1 (Homo sapiens, UniProt P25090)
T1 construct: expressed in transfected cells; host or cells: HEK293 (JCRB9068, NIBIO), transient transfection with pCMV-script vectors using Lipofectamine 2000
T1 sequence (P25090 1-351): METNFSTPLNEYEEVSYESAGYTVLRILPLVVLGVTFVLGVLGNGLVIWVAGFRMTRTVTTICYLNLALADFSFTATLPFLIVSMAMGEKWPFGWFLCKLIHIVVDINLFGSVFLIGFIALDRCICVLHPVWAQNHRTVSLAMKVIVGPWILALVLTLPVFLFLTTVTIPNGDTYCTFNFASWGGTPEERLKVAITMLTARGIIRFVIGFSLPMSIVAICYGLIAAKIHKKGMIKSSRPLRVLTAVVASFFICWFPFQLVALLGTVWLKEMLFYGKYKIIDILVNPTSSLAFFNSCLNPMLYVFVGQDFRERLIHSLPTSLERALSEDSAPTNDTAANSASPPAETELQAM
Test: Measurement test of agonist activity on human FPRL1 (test of calcium mobilization in cell, HEK293 with human FPRL1 and Gα15 expression vectors)
Type: cell-based
Details: calcium mobilization in HEK293 cells with human FPRL1 and Gα15 expression vectors
From the text: Measurement Test of Agonist Activity on Human FPRL1
(1-1) Construction of Human FPRL1 Expression Vector
Human FPRL (SEQ ID NO: 3) was amplified in a PCR reaction from cDNA derived from a monocytic leukemia cell line THP-1 (TIB-202, ATCC) as a template using a forward primer shown in SEQ ID NO: 1, a reverse primer shown in SEQ ID NO: 2, and KOD-plus-ver. 2 (KOD-211, TOYOBO CO., LTD.). The amplified PCR product and pCMV-script vector (212220, STRATAGENE) were digested with Hind III (1060A, Takara Bio Inc.) and XhoI (1094A, Takara Bio Inc.), and the resultant digest was ligated with Ligation high ver. 2 (LGK-201, TOYOBO CO., LTD.). The ligation product was transformed into DH5α (DNA-901, TOYOBO CO., LTD.), cultured on a 100 μg/mL kanamycin-containing LB medium, and purified with HiSpeed Plasmid Maxi Kit (12662, QIAGEN).
(1-2) Construction of Human Gα15 Expression Vector
Human Gα15 (SEQ ID NO: 6) was amplified in a PCR reaction from cDNA derived from a myeloid leukemia cell line HL-60 (CCL-240, ATCC) as a template using a forward primer shown in SEQ ID NO: 4, a reverse primer shown in SEQ ID NO: 5, and KOD-plus-ver. 2. The amplified PCR product and pCMV-script vector were digested with Hind III and XhoI, and the resultant digest was ligated with Ligation high ver. 2. The ligation product was transformed into DH5α, cultured on a 100 μg/mL kanamycin-containing LB medium, and purified with HiSpeed Plasmid Maxi Kit.
(2-1) Method for Culturing and Subculturing HEK293
HEK293 (JCRB9068, NIBIO) was cultured in an incubator at 5% CO2 and 37° C. using DMEM (11885-092, GIBCO) containing 10% FBS and 1× Penicillin-Streptomycin (15140-122, GIBCO). Subculture was carried out as followings: The cells that reached 80 to 90% confluency were washed with PBS(−), separated using 0.25% Trypsin-EDTA (25200-072, GIBCO), centrifuged, re-suspended in a fresh medium, and then seeded in Collagen Type 1 Coated dish (4020-010, IWAKI) at a split ratio of 1:8 (cultured for 3 days).
(2-2) Introduction of Human FPRL1 and Gα15 Expression Vectors
HEK293 that reached 80 to 90% confluency was washed with PBS(−), separated using 0.25% Trypsin-EDTA, centrifuged, and re-suspended in a fresh medium excluding 1× Penicillin-Streptomycin. The cells were inoculated in a Collagen Type 1 coated 6-well plate (4810-010, IWAKI) to 5×10^5 cells/2.5 mL/well and cultured overnight. On the next day, human FPRL1 and Gα15 expression vectors were introduced using Lipofectamine 2000 transfection reagent (11668-019, Life technologies). First, the human FPRL1 and Gα15 expression vectors were diluted with Opti-MEM I Reduced Serum Medium (31985-070, GIBCO) to 2 μg/250 μL/well and Lipofectamine 2000 transfection reagent was diluted with Opti-MEM I Reduced Serum Medium to be 4 μL/250 μL/well. The vectors and reagent were softly diffused, and incubated at room temperature for 5 minutes. The vector solution was mixed with Lipofectamine 2000 transfection reagent in equal amounts. In order to form a composite of the vectors and Lipofectamine 2000 transfection reagent, the mixture was incubated at room temperature for 20 minutes, and added at 500 μL/well to the medium of inoculated cells. The treated cells were cultured for 24 hours, inoculated in Poly-D-Lysine coated 96-well plate (356640, BD Biosciences) at a cell density of 7×10^4 cells/100 μL/well, and cultured for another 24 hours. The resultant cells were used in a measurement test of calcium mobilization in the cells.
(3) Evaluation of Agonist Activity on Human FPRL1 (Test of Calcium Mobilization in Cell)
An appropriate amount of each test compound was first weighed, and dissolved to 10^−2 M by addition of dimethyl sulfoxide (DMSO). […]

Compound	EC50 [nM]
COc1cc(F)c([C@@H]2CN(CCO)C(=O)[C@H]2NC(=O)Nc2ccc(Cl)nc2)c(F)c1 (relative stereo) [Example 24-9, (−)-1-(6-chloropyridin-3-yl)-3-[(3S*,4R*)-4-(2,6-difluoro-4-methoxyphenyl)-1-(2-hydroxyethyl)-2-oxopyrrolidin-3-yl]urea]	0.88
COc1cc(F)c([C@@H]2CN(CCO)C(=O)[C@H]2NC(=O)Nc2cc3ccccc3s2)c(F)c1 (relative stereo) [Example 24-10, (−)-1-(benzo[b]thiophen-2-yl)-3-[(3S*,4R*)-4-(2,6-difluoro-4-methoxyphenyl)-1-(2-hydroxyethyl)-2-oxopyrrolidin-3-yl]urea]	1
CCCN1C[C@@H](c2c(F)cc(OC)cc2F)[C@H](NC(=O)Nc2ccc(F)cc2)C1=O (relative stereo) [Example 24-11, (−)-1-[(3S*,4R*)-4-(2,6-difluoro-4-methoxyphenyl)-2-oxo-1-propylpyrrolidin-3-yl]-3-(4-fluorophenyl)urea]	0.06
COc1ccc([C@@H]2CNC(=O)[C@H]2NC(=O)Nc2ccc(F)c(F)c2)cc1 (single isomer, unassigned) [EXAMPLE 1-3, (-)-1-(3,4-difluorophenyl)-3-[(3S*,4R*)-4-(4-methoxyphenyl)-2-oxopyrrolidin-3-yl]urea]	2.57
COc1ccc([C@@H]2CNC(=O)[C@H]2NC(=O)Nc2ccc(C#N)cc2)cc1 (single isomer, unassigned) [EXAMPLE 1-5, (−)-1-(4-cyanophenyl)-3-[(3S*,4R*)-4-(4-methoxyphenyl)-2-oxopyrrolidin-3-yl]urea]	2.88
COc1ccc([C@@H]2CN(C)C(=O)[C@H]2NC(=O)Nc2ccc(Cl)cc2)cc1 (single isomer, unassigned) [EXAMPLE 1-6, (−)-1-(4-chlorophenyl)-3-[(3S*,4R*)-4-(4-methoxyphenyl)-1-methyl-2-oxopyrrolidin-3-yl]urea]	0.2
COc1ccc([C@@H]2CNC(=O)[C@H]2NC(=O)Nc2ccc(F)cc2)cc1F (single isomer, unassigned) [EXAMPLE 1-8, (−)-1-[(3S*,4R*)-4-(3-fluoro-4-methoxyphenyl)-2-oxopyrrolidin-3-yl]-3-(4-fluorophenyl)urea]	0.9
COc1ccc([C@@H]2CNC(=O)[C@H]2NC(=O)Nc2ccc(F)cc2)c(C)c1 (single isomer, unassigned) [EXAMPLE 1-11, (−)-1-(4-fluorophenyl)-3-[(3S*,4R*)-4-(4-methoxy-2-methylphenyl)-2-oxopyrrolidin-3-yl]urea]	1.59

Now from value to molecule:

EC50 [nM]	Compound
2.2	COc1cc(F)c([C@@H]2CN(Cc3ccccc3)C(=O)[C@H]2NC(=O)Nc2ccc(F)cc2)c(F)c1 (relative stereo) [Example 24-12, (−)-1-[(3S*,4R*)-1-benzyl-4-(2,6-difluoro-4-methoxyphenyl)-2-oxopyrrolidin-3-yl]-3-(4-fluorophenyl)urea]
0.11	COc1cc(F)c([C@@H]2CN(Cc3cccnc3)C(=O)[C@H]2NC(=O)Nc2ccc(F)cc2)c(F)c1 (relative stereo) [Example 24-13, (−)-1-[(3S*,4R*)-4-(2,6-difluoro-4-methoxyphenyl)-2-oxo-1-(pyridin-3-ylmethyl)pyrrolidin-3-yl]-3-(4-fluorophenyl)urea]
0.12	COc1cc(F)c([C@@H]2CN(CS(C)(=O)=O)C(=O)[C@H]2NC(=O)Nc2ccc(F)cc2)c(F)c1 (relative stereo) [Example 24-14, (−)-1-{(3S*,4R*)-4-(2,6-difluoro-4-methoxyphenyl)-1-[(methylsulfonyl)methyl]-2-oxopyrrolidin-3-yl}-3-(4-fluorophenyl)urea]
0.03	COc1cc(F)c([C@@H]2CN(CS(N)(=O)=O)C(=O)[C@H]2NC(=O)Nc2ccc(F)cc2)c(F)c1 (relative stereo) [Example 24-15, (−)-{(3S*,4R*)-4-(2,6-difluoro-4-methoxyphenyl)-3-[3-(4-fluorophenyl)ureido]-2-oxopyrrolidin-1-yl}methanesulfonamide]

Source: patent US9822069B2, “Urea derivative or pharmacologically acceptable salt thereof” (KYORIN PHARMACEUTICAL CO. LTD., priority 2013, dated 2017)
